Data as given in US20240118263A1, “TARGET FOR SCREENING ANTI-TUMOR DRUG, USE THEREOF AND SCREENING METHOD THEREFOR” (SHENYANG FUYANG PHARMACEUTICAL TECHNOLOGY CO., LTD., priority 2019, published 2024).

Experiments:
LN229 and U251 cells = assay: Cell cycle analysis by flow cytometry (EdU and DAPI), glioblastoma cells; format: cell-based; settings: LN229 and U251, compared with control cells
Experimental: For monitoring cell-cycle arrest of ISP I-treated cells, Click-iT EdU Flow Cytometry Assay Kits were used, a product of ThermoFisher Scientific. Cells were co-cultured with EdU at a concentration of 10 μM for 1 hour. After fixation and permeabilization, EdU-positive cells were labeled with Alexa Fluor 647 fluorescein. DAPI also was used for measuring total DNA content to identify differences in cell cycle phases. Data were collected by means of a BD LSRFortessa flow cytometer using FlowJo software. Cells that are positive with EdU and DAPI were in S-Phase of the cell cycle.

SELH protein degradation = SELH protein degradation (Homo sapiens (Human), UniProt Q8IZQ5)
SELH protein degradation, sequence (Q8IZQ5 whole entry): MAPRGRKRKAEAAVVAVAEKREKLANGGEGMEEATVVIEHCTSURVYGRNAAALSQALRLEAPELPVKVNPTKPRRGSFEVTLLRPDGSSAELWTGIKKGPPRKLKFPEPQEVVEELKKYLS
Text: A cycloheximide (CHX) chase assay was completed to assess ISP I's effect on SELH protein degradation.

[1] = system: B16 melanoma lung metastasis; assay: Metastatic murine melanoma (B16) lung metastasis model; format: in vivo, C57BL/6 mice; settings: ISP I 35 mg/kg intraperitoneally daily, 12 days, vs saline
Experimental: In addition to the aforementioned xenograft tumor models, the anti-tumor activity of ISP I was assessed in a metastatic murine melanoma (B16) model. Mice were intravenously injected with 2×10^5 B16 cells and randomized into the following three treatment groups: ISP I (35 mg/kg), Carrimycin (56 mg/kg), Saline (control) (FIG. 13D).
For metastasis study, C57BL/6 mice (4-5 weeks) from Charles River Laboratories (Wilmington, MA USA) were assigned randomly to one or another of two groups, 9 animals per group. B16-F10 mouse skin melanoma cells (2×10^5) were resuspended in 100 μl saline and injected through tail vein. After treatment with ISP I at 35 mg/kg for 12 days, all mice were euthanized, and the lungs were examined for counting black metastasis dots.

[2] = system: SELH-deficient LN229 cells and RCC cells (786-O and RCC4); assay: CCK8 assay in SELH-deficient (CRISPR/CAS9) cells; format: cell-based; settings: CCK8, compared to wild-type cells
Text: SELH knockout LN229 cell lines and B16 were generated using the CRISPR/Cas9 technique described by Shalem et al., Science 343: 84 (2014). The gDNA for targeting SELH was designed as follows: Oligo 1, 5′-[…]-3′; Oligo 2, 5′-[…]-3′; the gDNA for targeting mouse SELH was designed as follows: Oligo 1, 5′-[…]-3′; Oligo 2, 5′-[…]-3′, and subcloned into Cas9 carrying vector (pX330). The two resultant plasmids and puromycin-expressing vector (pPGK-puro) were co-transfected at a ratio of 1:1:1 into LN229 or B16 cells using Lipofectamine 2000 (Invitrogen). Twenty-four hours later, the transfected cells were subjected to puromycin (Sigma) at 1 μg/mL for 7 days. One week after selection, the surviving clones were expanded, followed by extraction of total protein for standard western blotting analysis.

SMILES: CO[C@@H]1[C@@H](O[C@@H]2O[C@H](C)[C@@H](O[C@H]3C[C@@](C)(O)[C@@H](OC(=O)CC(C)C)[C@H](C)O3)[C@H](N(C)C)[C@H]2O)[C@@H](CC=O)C[C@@H](C)[C@@H](O[C@H]2CC[C@H](N(C)C)[C@@H](C)O2)/C=C/C=C/C[C@@H](C)OC(=O)C[C@H]1O [Isovalerylspiramycin I, 4″-isovalerylspiramycin I]
- cell distribution in cell cycle phases (LN229 and U251 cells): dose-dependent increase in the G0/G1 phase and a decrease in the S phase
- SELH protein half-life (SELH protein degradation): reduced the SELH protein half-life
- lung tumor nodules [1]: significantly reduced lung tumor nodules
- response of SELH-deficient cells to treatment [2]: SELH-deficient cells were resistant to ISP I treatment
